34 compounds from US12145939B2, “Substituted [1,2,4]triazolo[4,3-a]pyrazines as ion channel modulators” (PRAXIS PRECISION MEDICINES, INC., priority 2019, dated 2024) can be followed below.

The experiment concerns the target T1, human NaV1.6 (hNaV1.6) (Homo sapiens, UniProt Q9UQD0).
T1 construct: expressed in transfected cells; host or cells: HEK-293
The experiment can be described thus: Modulation of late sodium current (INaL) at hNaV1.6, PatchXpress electrophysiology. It counts as cell-based. To be noted: HEK293, HEK-293 cells expressing recombinant human NaV 1.6, late current evoked by 300 nM ATX-II, read-out: NaV 1.6 Assay Data (percent inhibition of INaL at hNaV1.6). The protocol:
Functional characterization of exemplary compounds to modulate INaL expressed by the NaV1.6 voltage-gated sodium channel was accomplished using the PatchXpress™ high throughput electrophysiology platform (Molecular Devices, Sunnyvale, CA). HEK-293 cells expressing recombinant, human NaV1.6 (hNaV1.6) were grown in DMEM/high-glucose Dulbecco's modified, 10% FBS, 2 mM sodium pyruvate, 10 mM HEPES and 400 μg/mL G418. Cells were grown to 50%-80% confluency prior to harvesting. Trypsinized cells were washed, allowed to recover for 1 hour and then resuspended in extracellular recording solution at a concentration of 1×10^6 cells/ml. The onboard liquid handling facility of the PatchXpress was used for dispensing cells and applying test compounds. NaV late currents were evoked by the application of 300 nM ATX-II. INaL was evoked by depolarizing pulses to 0 mV for 200 ms from a non-inactivating holding potential (e.g., −120 mV) at a frequency of 0.1 Hz. INaL amplitude and stability were determined by analyzing the mean current amplitude over the final 20 ms of the test pulse. Following steady state block with exemplary compounds (e.g., as described herein), a Na+ free solution containing an impermeant cation (e.g., Choline or NDMG) was added to confirm the identity of the sodium current. Percent steady-state inhibition of INaL was calculated as: […], where INaL_compound and INaL_control represent INaL recorded in the presence or absence of compound, respectively.
Results from this assay relating to percent inhibition of INaL at hNaV1.6 (measured using a procedure similar to described above but using HEK-293 cells expressing recombinant, human NaV 1.6 (h NaV 1.6) at 1 μM are summarized in Table 1 below. In this table, “A” indicates inhibition of less than 30%; “B” indicates inhibition of between about 30% to about 70%; and “C” indicates inhibition of greater than 70%. “N/A” indicates not available.

T1 sequence (Q9UQD0 whole entry): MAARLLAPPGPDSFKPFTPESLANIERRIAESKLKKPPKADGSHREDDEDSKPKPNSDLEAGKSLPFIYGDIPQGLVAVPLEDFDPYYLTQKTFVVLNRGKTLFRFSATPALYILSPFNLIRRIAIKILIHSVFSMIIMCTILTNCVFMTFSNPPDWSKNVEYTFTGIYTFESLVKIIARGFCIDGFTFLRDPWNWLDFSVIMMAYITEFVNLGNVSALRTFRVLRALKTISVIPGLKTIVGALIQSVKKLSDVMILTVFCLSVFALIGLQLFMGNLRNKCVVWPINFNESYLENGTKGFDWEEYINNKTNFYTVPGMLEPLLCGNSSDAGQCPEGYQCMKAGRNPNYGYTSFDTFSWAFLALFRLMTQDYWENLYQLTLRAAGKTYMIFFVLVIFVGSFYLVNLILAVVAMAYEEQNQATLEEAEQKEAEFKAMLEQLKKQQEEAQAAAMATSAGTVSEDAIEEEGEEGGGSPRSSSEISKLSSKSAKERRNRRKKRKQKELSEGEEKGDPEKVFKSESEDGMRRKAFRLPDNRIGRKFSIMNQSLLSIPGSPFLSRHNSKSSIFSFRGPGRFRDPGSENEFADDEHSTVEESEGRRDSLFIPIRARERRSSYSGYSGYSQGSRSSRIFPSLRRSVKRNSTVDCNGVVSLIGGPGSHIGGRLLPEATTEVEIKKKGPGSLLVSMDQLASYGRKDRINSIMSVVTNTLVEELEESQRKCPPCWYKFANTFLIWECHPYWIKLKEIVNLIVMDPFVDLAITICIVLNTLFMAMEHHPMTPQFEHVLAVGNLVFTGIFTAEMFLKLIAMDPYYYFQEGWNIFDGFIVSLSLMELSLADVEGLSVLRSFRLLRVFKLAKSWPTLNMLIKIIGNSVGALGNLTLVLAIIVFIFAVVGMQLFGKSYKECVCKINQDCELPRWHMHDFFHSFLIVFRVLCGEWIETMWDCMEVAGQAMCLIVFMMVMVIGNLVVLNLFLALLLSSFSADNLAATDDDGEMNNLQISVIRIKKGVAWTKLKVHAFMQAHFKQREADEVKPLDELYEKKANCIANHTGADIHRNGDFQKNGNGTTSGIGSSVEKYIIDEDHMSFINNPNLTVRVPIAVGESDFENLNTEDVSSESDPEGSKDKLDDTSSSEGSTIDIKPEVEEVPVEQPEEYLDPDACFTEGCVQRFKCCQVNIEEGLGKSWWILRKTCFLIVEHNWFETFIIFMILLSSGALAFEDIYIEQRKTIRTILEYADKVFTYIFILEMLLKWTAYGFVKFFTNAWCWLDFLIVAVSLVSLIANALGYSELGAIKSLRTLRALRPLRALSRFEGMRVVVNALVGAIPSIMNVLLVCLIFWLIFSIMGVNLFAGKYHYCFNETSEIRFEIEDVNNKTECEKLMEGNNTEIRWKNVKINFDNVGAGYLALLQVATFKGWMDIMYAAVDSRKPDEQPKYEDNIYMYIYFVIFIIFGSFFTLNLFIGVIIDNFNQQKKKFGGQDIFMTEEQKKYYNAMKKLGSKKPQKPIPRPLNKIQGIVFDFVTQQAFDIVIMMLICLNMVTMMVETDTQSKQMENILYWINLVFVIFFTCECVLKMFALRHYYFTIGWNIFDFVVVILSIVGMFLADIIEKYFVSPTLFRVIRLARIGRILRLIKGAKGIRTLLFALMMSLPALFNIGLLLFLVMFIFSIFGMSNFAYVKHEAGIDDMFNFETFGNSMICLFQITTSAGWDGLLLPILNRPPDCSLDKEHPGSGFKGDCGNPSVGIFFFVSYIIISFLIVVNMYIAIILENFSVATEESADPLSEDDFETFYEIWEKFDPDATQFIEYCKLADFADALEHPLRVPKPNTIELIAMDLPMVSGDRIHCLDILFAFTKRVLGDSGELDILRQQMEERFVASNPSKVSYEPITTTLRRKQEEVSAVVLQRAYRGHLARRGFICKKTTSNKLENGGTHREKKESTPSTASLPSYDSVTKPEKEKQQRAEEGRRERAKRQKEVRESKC

As a reminder, the inhibition is the relative decrease from the control value, in per cent. As for `CCOC(F)(F)c1nnc2cnc(-c3ccc([C@@H](C)OCC(F)(F)F)cc3C)cn12` (single isomer, unassigned) [Compound III-9], the inhibition at 1 µM was 30 to 70%.
Then `CO[C@H](C)c1nnc2cnc(-c3cnc(O[C@H](C4CC4)C(F)(F)F)c(F)c3)cn12` (single isomer, unassigned) [Compound I-15], with 30 to 70%; and `CO[C@@H](C)c1nnc2cnc(-c3cnc(OC(C)(C)C(F)(F)F)c(F)c3)cn12` (single isomer, unassigned) [Compound I-2], with 30 to 70%; and `CO[C@H](C)c1nnc2cnc(-c3cnc(O[C@@H](C4CC4)C(F)(F)F)c(F)c3)cn12` (single isomer, unassigned) [Compound I-17], with less than 30%.
With `CCOC(F)(F)c1nnc2cnc(-c3ccc(OC(F)(F)F)cc3C3CC3)cn12` [Compound III-2, 6-[2-cyclopropyl-4-(trifluoromethoxy)phenyl]-3-[ethoxy(difluoro)methyl]-[1,2,4]triazolo[4,3-a]pyrazine], the inhibition at 1 µM was greater than 70%.
Under `COC(F)(F)c1nnc2cnc(-c3ccc([C@H]4CC4(F)F)cc3)cn12` (single isomer, unassigned) [Compound III-4] stands 30 to 70%.
Under `CCOC(F)(F)c1nnc2cnc(-c3ccc([C@@H](C)OCC(F)(F)F)cc3)cn12` (single isomer, unassigned) [Compound III-19] stands less than 30%.
Take `CO[C@@H](C)c1nnc2cnc(-c3ccc(O[C@H](C4CC4)C(F)(F)F)nc3)cn12` (single isomer, unassigned) [Compound I-23]: the inhibition at 1 µM is less than 30%.
Under `CO[C@@H](C)c1nnc2cnc(-c3ccc(O[C@@H](C4CC4)C(F)(F)F)nc3)cn12` (single isomer, unassigned) [Compound I-21] stands less than 30%; under `COC(C)(C)c1nnc2cnc(-c3cnc(OC4(C(F)(F)F)CCC4)c(F)c3)cn12` [Compound II-12, 6-(5-fluoro-6-(1-(trifluoromethyl)cyclobutoxy)pyridin-3-yl)-3-(2-methoxypropan-2-yl)-[1,2,4]triazolo[4,3-a]pyrazine], greater than 70%.
Under `COC(F)(F)c1nnc2cnc(-c3ccc([C@@H]4CC4(F)F)cc3)cn12` (single isomer, unassigned) [Compound III-3] stands greater than 70%; under `COC1(c2nnc3cnc(-c4cnc(O[C@H](C)C(F)(F)F)c(F)c4)cn23)CC1` [Compound II-2, (R)-6-(5-fluoro-6-((1,1,1-trifluoropropan-2-yl)oxy)pyridin-3-yl)-3-(1-methoxycyclopropyl)-[1,2,4]triazolo[4,3-a]pyrazine], less than 30%.
Under `CCOC(F)(F)c1nnc2cnc(-c3ccc(COCC(F)(F)F)cc3C)cn12` [Compound III-5, 3-[ethoxy(difluoro)methyl]-6-[2-methyl-4-(2,2,2-trifluoroethoxymethyl)phenyl]-[1,2,4]triazolo[4,3-a]pyrazine] stands 30 to 70%.
As to `COC(F)(F)c1nnc2cnc(-c3ccc([C@@H](C)OCC(F)(F)F)cc3)cn12` (single isomer, unassigned) [Compound III-17], the inhibition at 1 µM was less than 30%.
Then `CO[C@H](C)c1nnc2cnc(-c3ccc(OC(C)(C)C(F)(F)F)nc3)cn12` (single isomer, unassigned) [Compound I-9], with 30 to 70%; and `COC(C)(C)c1nnc2cnc(-c3cnc(O[C@@H](C)C(F)(F)F)c(F)c3)cn12` [Compound II-9, (S)-6-(5-fluoro-6-((1,1,1-trifluoropropan-2-yl)oxy)pyridin-3-yl)-3-(2-methoxypropan-2-yl)-[1,2,4]triazolo[4,3-a]pyrazine], with 30 to 70%.
Under `CO[C@@H](C)c1nnc2cnc(-c3cnc(OC4(C(F)(F)F)CCC4)c(F)c3)cn12` (single isomer, unassigned) [Compound I-4] stands 30 to 70%.
In the case of `FC(F)(F)Oc1ccc(-c2cn3c(C(F)(F)F)nnc3cn2)c(C2CC2)c1` [Compound III-1, 6-[2-cyclopropyl-4-(trifluoromethoxy)phenyl]-3-(trifluoromethyl)-[1,2,4]triazolo[4,3-a]pyrazine], the inhibition at 1 µM was greater than 70%.
`CCO[C@@H](C)c1nnc2cnc(-c3cnc(OC4(C(F)(F)F)CCC4)c(F)c3)cn12` [Compound I-7, (S)-3-(1-ethoxyethyl)-6-(5-fluoro-6-(1-(trifluoromethyl)cyclobutoxy)pyridin-3-yl)-[1,2,4]triazolo[4,3-a]pyrazine]: the inhibition at 1 µM was 30 to 70%.
Under `CCOC(C)(C)c1nnc2cnc(-c3cnc(OC(C)(C)C(F)(F)F)c(F)c3)cn12` [Compound II-11, 3-(2-ethoxypropan-2-yl)-6-(5-fluoro-6-((1,1,1-trifluoro-2-methylpropan-2-yl)oxy)pyridin-3-yl)-[1,2,4]triazolo[4,3-a]pyrazine] stands 30 to 70%; under `C[C@@H](Oc1ccc(-c2cn3c(C(F)F)nnc3cn2)cn1)C(F)(F)F` [Compound III-13, (R)-3-(difluoromethyl)-6-(6-((1,1,1-trifluoropropan-2-yl)oxy)pyridin-3-yl)-[1,2,4]triazolo[4,3-a]pyrazine], greater than 70%.
Then `CCOC(C)(C)c1nnc2cnc(-c3ccc(OC(C)(C)C(F)(F)F)nc3)cn12` [Compound II-15, 3-(2-ethoxypropan-2-yl)-6-(6-((1,1,1-trifluoro-2-methylpropan-2-yl)oxy)pyridin-3-yl)-[1,2,4]triazolo[4,3-a]pyrazine], with 30 to 70%.
Under `CCO[C@H](C)c1nnc2cnc(-c3cnc(OC4(C(F)(F)F)CCC4)c(F)c3)cn12` [Compound I-14, (R)-3-(1-ethoxyethyl)-6-(5-fluoro-6-(1-(trifluoromethyl)cyclobutoxy)pyridin-3-yl)-[1,2,4]triazolo[4,3-a]pyrazine] stands 30 to 70%.
Consider `CCO[C@H](C)c1nnc2cnc(-c3ccc(OC(C)(C)C(F)(F)F)nc3)cn12` [Compound I-19, (R)-3-(1-ethoxyethyl)-6-(6-((1,1,1-trifluoro-2-methylpropan-2-yl)oxy)pyridin-3-yl)-[1,2,4]triazolo[4,3-a]pyrazine], for which the inhibition at 1 µM was in the range of 30 to 70%.
Under `COC1(c2nnc3cnc(-c4cnc(O[C@@H](C)C(F)(F)F)c(F)c4)cn23)CC1` [Compound II-3, (S)-6-(5-fluoro-6-((1,1,1-trifluoropropan-2-yl)oxy)pyridin-3-yl)-3-(1-methoxycyclopropyl)-[1,2,4]triazolo[4,3-a]pyrazine] stands 30 to 70%; under `CO[C@H](C)c1nnc2cnc(-c3ccc(O[C@H](C4CC4)C(F)(F)F)nc3)cn12` (single isomer, unassigned) [Compound I-24], less than 30%; under `CCO[C@H](C)c1nnc2cnc(-c3ccc(OC4(C(F)(F)F)CCC4)nc3)cn12` [Compound I-20, (R)-3-(1-ethoxyethyl)-6-(6-(1-(trifluoromethyl)cyclobutoxy)pyridin-3-yl)-[1,2,4]triazolo[4,3-a]pyrazine], 30 to 70%.
Then `CO[C@H](C)c1nnc2cnc(-c3ccc(O[C@@H](C4CC4)C(F)(F)F)nc3)cn12` (single isomer, unassigned) [Compound I-22], with less than 30%; and `C[C@H](Oc1ccc(-c2cn3c(C(F)(F)Cl)nnc3cn2)cn1)C(F)(F)F` [Compound II-7, (S)-3-(chlorodifluoromethyl)-6-(6-((1,1,1-trifluoropropan-2-yl)oxy)pyridin-3-yl)-[1,2,4]triazolo[4,3-a]pyrazine], with 30 to 70%.
Under `CCOC(F)(F)c1nnc2cnc(-c3ccc([C@H](C)OCC(F)(F)F)cc3C)cn12` (single isomer, unassigned) [Compound III-10] stands less than 30%; under `COC(C)(C)c1nnc2cnc(-c3cnc(OCC(F)(F)F)c(F)c3)cn12` [Compound II-4, 6-(5-fluoro-6-(2,2,2-trifluoroethoxy)pyridin-3-yl)-3-(2-methoxypropan-2-yl)-[1,2,4]triazolo[4,3-a]pyrazine], less than 30%; under `CCO[C@@H](C)c1nnc2cnc(-c3cnc(OC(C)(C)C(F)(F)F)c(F)c3)cn12` [Compound I-12, 6-[5-fluoro-6-(2,2,2-trifluoro-1,1-dimethyl-ethoxy)-3-pyridyl]-3-[(1S)-1-ethoxyethyl]-[1,2,4]triazolo[4,3-a]pyrazine], 30 to 70%.
Consider `COC(C)(C)c1nnc2cnc(-c3ccc(OCC(F)(F)F)nc3)cn12` [Compound II-5, 3-(2-methoxypropan-2-yl)-6-(6-(2,2,2-trifluoroethoxy)pyridin-3-yl)-[1,2,4]triazolo[4,3-a]pyrazine], for which the inhibition at 1 µM is less than 30%.
Under `CO[C@H](C)c1nnc2cnc(-c3ccc(OC4(C(F)(F)F)CCC4)nc3)cn12` (single isomer, unassigned) [Compound I-6] stands 30 to 70%.
